From patent US12643910B2, “Substituted pyrazolo[3,4-b]pyridines as ectonucleotide pyrophosphatase/phosphodiesterase 1 (ENPP1) modulators” (SANFORD BURNHAM PREBYS MEDICAL DISCOVERY INSTITUTE, priority 2019, dated 2026)

Molecular target: T1, human ENPP1 (Homo sapiens, UniProt P22413)
T1 construct: made in house
T1 sequence (P22413 1-925): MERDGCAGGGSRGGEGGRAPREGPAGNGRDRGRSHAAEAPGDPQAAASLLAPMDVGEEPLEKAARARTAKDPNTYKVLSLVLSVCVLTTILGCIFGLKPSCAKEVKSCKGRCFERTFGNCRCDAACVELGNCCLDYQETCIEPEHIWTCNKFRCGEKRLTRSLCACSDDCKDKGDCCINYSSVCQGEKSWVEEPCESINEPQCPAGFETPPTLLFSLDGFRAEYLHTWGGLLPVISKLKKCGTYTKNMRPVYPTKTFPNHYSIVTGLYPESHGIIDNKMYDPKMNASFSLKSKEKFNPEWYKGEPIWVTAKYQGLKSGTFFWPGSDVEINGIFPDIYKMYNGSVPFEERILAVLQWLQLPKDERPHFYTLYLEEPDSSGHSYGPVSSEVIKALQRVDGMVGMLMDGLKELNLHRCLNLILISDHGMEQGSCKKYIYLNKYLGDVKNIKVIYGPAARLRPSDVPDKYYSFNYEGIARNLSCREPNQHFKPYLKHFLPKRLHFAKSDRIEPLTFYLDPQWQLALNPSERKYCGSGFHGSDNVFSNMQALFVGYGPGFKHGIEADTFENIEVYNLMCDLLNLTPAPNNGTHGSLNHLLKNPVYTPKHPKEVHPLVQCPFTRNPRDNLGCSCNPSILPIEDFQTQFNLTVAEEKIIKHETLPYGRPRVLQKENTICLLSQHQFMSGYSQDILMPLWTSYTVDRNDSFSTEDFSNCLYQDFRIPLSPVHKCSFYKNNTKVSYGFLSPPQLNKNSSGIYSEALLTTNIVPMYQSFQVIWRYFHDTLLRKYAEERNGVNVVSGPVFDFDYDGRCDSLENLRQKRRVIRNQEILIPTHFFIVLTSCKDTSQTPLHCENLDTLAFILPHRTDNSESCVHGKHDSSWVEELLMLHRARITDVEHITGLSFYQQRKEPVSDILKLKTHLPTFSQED
Experiment: ENPP1 assay with ATP substrate (Transcreener AMP2/GMP2 TR-FRET)
Assay type: biochemical
Settings: 1 hour at room temperature
Source text: Example B1: ENPP1 Assay with ATP Substrate
Ectonucleotide pyrophosphatase/phosphodiesterase 1 (ENPP1) hydrolyzes ATP, breaking it down into 5′-AMP and pyrophosphate. The 5′-AMP formed from the reaction is detected by Transcreener® AMP2/GMP2 TR-FRET Assay (Bellbrook), containing AMP-tracer (HiLyte 647) and anti-AMP Terbium (Tb) donor. 5′-AMP generated in the reaction competes with AMP-tracer for binding with Anti-AMP Tb donor, and decreases TR-FRET signal.
Different concentrations of ENPP1 inhibitors are added to dry assay plate, followed by 2 μl 300 nM ATP. The reaction is initiated with the addition of 2 μl 8.5 μM human ENPP1 (generated by SBP Protein group). The assay reaction mixture contains a buffer of 50 mM Tris, pH 7.5, 1 mM TCEP, 2 mM MgCl2, 0.005% Tween 20, and 1% DMSO. The reaction is stopped after 1 hour at room temperature by adding 2 μL of 2 nM AMP-tracer and 2 μl of 2 nM Anti-AMP Tb donor in the 50 mM Tris, pH 7.5, buffer containing 20 mM EDTA and 0.1% Prionex. After 2 hour additional incubation at room temperature, the generated signal is measured using BMG Lab PHERASTAR instrument. 100% activity control samples (containing enzyme, substrate, buffer: MAX) and no enzyme control samples (containing substrate and buffer: MIN) are utilized to calculate percent inhibition (%) for each compound concentration well (COMPOUND) as follows.
The IC50 values are determined by fitting the inhibition curves with 2-parameter variable slope model in Graphpad Prism software using percent inhibition vs compound concentration data: […]

Structure (SMILES) | IC50 [µM]
COc1ccc(CNc2nc(-c3ccccn3)nc3c2cnn3C)cc1 [Example 2.11, N-(4-Methoxybenzyl)-1-methyl-6-(pyridin-2-yl)-1H-pyrazolo[3,4-d]pyrimidin-4-amine] | > 20
c1ccc(-c2csc3nc(-c4ccccn4)nc(NCc4ccco4)c23)cc1 [Example 1.35, Furan-2-ylmethyl-(5-phenyl-2-pyridin-2-yl-thieno[2,3-d]pyrimidin-4-yl)-amine] | 1 to 20
Cc1csc2c(N3CCC(NC/C=C/c4ccncc4)CC3)ncnc12 [Example 3.76, (E)-1-(7-methylthieno[3,2-d]pyrimidin-4-yl)-N-(3-(pyridin-4-yl)allyl)piperidin-4-amine] | 0.1 to 1
Cn1ncc(CNc2nc(-c3ccccn3)nc3scc(-c4ccccc4)c23)c1N [Example 1.34, (5-Amino-1-methyl-1H-pyrazol-4-ylmethyl)-(5-phenyl-2-pyridin-2-yl-thieno[2,3-d]pyrimidin-4-yl)-amine] | 1 to 20
O=C(CCc1ccc(F)cc1)NC1CCN(c2ncnc3c(Cl)csc23)CC1 [Example 3.64, N-(1-(7-Chlorothieno[3,2-d]pyrimidin-4-yl)piperidin-4-yl)-3-(4-fluorophenyl)propanamide] | 1 to 20
Cc1ccc(CNc2nc(-c3ccccn3)nc3c2cnn3C)o1 [Example 2.22, 1-Methyl-N-((5-methylfuran-2-yl)methyl)-6-(pyridin-2-yl)-1H-pyrazolo[3,4-d]pyrimidin-4-amine] | > 20
CNc1nc(N2CCC(NCCCc3cnccc3C)CC2)c2scc(C)c2n1 [Example 3.69, N,7-Dimethyl-4-(4-((3-(4-methylpyridin-3-yl)propyl)amino)piperidin-1-yl)thieno[3,2-d]pyrimidin-2-amine] | 1 to 20
Cn1ncc2c(NCc3cccnc3)nc(-c3ccccn3)nc21 [Example 2.18, 1-Methyl-6-(pyridin-2-yl)-N-(pyridin-3-ylmethyl)-1H-pyrazolo[3,4-d]pyrimidin-4-amine] | > 20
CN(c1nc(-c2ccccn2)nc2scc(-c3ccccc3)c12)C1CCCC1 [Example 1.36, Cyclopentyl-methyl-(5-phenyl-2-pyridin-2-yl-thieno[2,3-d]pyrimidin-4-yl)-amine] | > 20
Cn1ncc2c(NCc3ccc(S(N)(=O)=O)cc3)nc(-c3ccccc3)nc21 [Example 2, 4-(((1-Methyl-6-phenyl-1H-pyrazolo[3,4-d]pyrimidin-4-yl)amino)methyl)-benzenesulfonamide] | 1 to 20
Cc1csc2c(N3CCC(NCC4CC4c4ccncc4)CC3)ncnc12 (stereo not shown) [Example 3.81, 1-(7-Methylthieno[3,2-d]pyrimidin-4-yl)-N-((2-(pyridin-4-yl)cyclopropyl)methyl)piperidin-4-amine] | 0.1 to 1
Cn1ncc2c(NCc3cccs3)nc(-c3ccccn3)nc21 [Example 2.21, 1-Methyl-6-(pyridin-2-yl)-N-(thiophen-2-ylmethyl)-1H-pyrazolo[3,4-d]pyrimidin-4-amine] | > 20
Cn1ncc2c(NCc3ccc(S(N)(=O)=O)cc3)nc(-c3ccncc3)nc21 [Example 2.16, 4-(((1-Methyl-6-(pyridin-4-yl)-1H-pyrazolo[3,4-d]pyrimidin-4-yl)amino)methyl)-benzenesulfonamide] | > 20
Cc1ccncc1CCCNC1CCN(c2ncnc3ccsc23)CC1 [Example 3.63, N-(3-(4-Methylpyridin-3-yl)propyl)-1-(thieno[3,2-d]pyrimidin-4-yl)piperidin-4-amine] | 1 to 20
Cc1csc2c(N3CCC(NCCCc4ccncc4)CC3)nc(Cl)nc12 [Example 3.65, 1-(2-Chloro-7-methylthieno[3,2-d]pyrimidin-4-yl)-N-(3-(pyridin-4-yl)propyl)piperidin-4-amine] | 1 to 20
COc1nc(N2CCC(NCCCc3cnccc3C)CC2)c2scc(C)c2n1 [Example 3.70, 1-(2-Methoxy-7-methylthieno[3,2-d]pyrimidin-4-yl)-N-(3-(4-methylpyridin-3-yl)propyl)piperidin-4-amine] | 0.1 to 1

Structure (SMILES) | IC50 [µM]
Cn1ncc2c(NCc3cccc(F)c3)nc(-c3ccccn3)nc21 [Example 2.12, N-(3-Fluorobenzyl)-1-methyl-6-(pyridin-2-yl)-1H-pyrazolo[3,4-d]pyrimidin-4-amine] | > 20
Cn1ncc2c(NCc3ccc(Cl)cc3)nc(-c3ccccn3)nc21 [Example 2.13, N-(4-Chlorobenzyl)-1-methyl-6-(pyridin-2-yl)-1H-pyrazolo[3,4-d]pyrimidin-4-amine] | > 20
Cn1ncc2c(NCc3ccccn3)nc(-c3ccccn3)nc21 [Example 2.19, 1-Methyl-6-(pyridin-2-yl)-N-(pyridin-2-ylmethyl)-1H-pyrazolo[3,4-d]pyrimidin-4-amine] | > 20
COc1nc(N2CCC(NCCCc3ccncc3)CC2)c2scc(C)c2n1 [Example 3.66, 1-(2-Methoxy-7-methylthieno[3,2-d]pyrimidin-4-yl)-N-(3-(pyridin-4-yl)propyl)piperidin-4-amine] | 1 to 20
Cc1ccncc1/C=C/CNC1CCN(c2ncnc3c(Br)csc23)CC1 [Example 3.62, (E)-1-(7-Bromothieno[3,2-d]pyrimidin-4-yl)-N-(3-(4-methylpyridin-3-yl)allyl)piperidin-4-amine] | < 0.1
Cc1ccncc1CCCNC1CCN(c2nc(NCCO)nc3c(C)csc23)CC1 [Example 3.71, 2-((7-Methyl-4-(4-((3-(4-methylpyridin-3-yl)propyl)amino)piperidin-1-yl)thieno[3,2-d]pyrimidin-2-yl)amino)ethanol] | 0.1 to 1
Cn1ncc2c(NCc3ccccc3)nc(-c3ccccn3)nc21 [Example 2.9, N-Benzyl-1-methyl-6-(pyridin-2-yl)-1H-pyrazolo[3,4-d]pyrimidin-4-amine] | > 20
Cc1csc2c(N3CCC(NCC4CC4c4ccncc4)CC3)nc(Cl)nc12 (stereo not shown) [Example 3.80, 1-(2-Chloro-7-methylthieno[3,2-d]pyrimidin-4-yl)-N-((2-(pyridin-4-yl)cyclopropyl)methyl)piperidin-4-amine] | 1 to 20
Cc1csc2c(N3CCC(NC(=O)C4CC4c4ccccc4)CC3)ncnc12 (stereo not shown) [Example 3.79, N-(1-(7-Methylthieno[3,2-d]pyrimidin-4-yl)piperidin-4-yl)-2-phenylcyclopropanecarboxamide] | 1 to 20
Cn1ncc2c(NCc3ccco3)nc(-c3ccccn3)nc21 [Example 2.23, N-(Furan-2-ylmethyl)-1-methyl-6-(pyridin-2-yl)-1H-pyrazolo[3,4-d]pyrimidin-4-amine] | > 20
NS(=O)(=O)c1cccc(CNc2nc(-c3ccccn3)nc3scc(-c4ccccc4)c23)c1 [Example 1.12, 3-[(5-Phenyl-2-pyridin-2-yl-thieno[2,3-d]pyrimidin-4-ylamino)-methyl]-benzenesulfonamide] | 1 to 20
Cn1ncc2c(NCc3ccc(S(N)(=O)=O)cc3)nc(-c3cccnc3)nc21 [Example 2.15, 4-(((1-Methyl-6-(pyridin-3-yl)-1H-pyrazolo[3,4-d]pyrimidin-4-yl)amino)methyl)-benzenesulfonamide] | 1 to 20
Cc1csc2nc(-c3ccccn3)nc(NCc3ccc(S(N)(=O)=O)s3)c12 [Example 1.37, 5-(((5-Methyl-2-(pyridin-2-yl)thieno[2,3-d]pyrimidin-4-yl)amino)methyl)thiophene-2-sulfonamide] | > 20
c1ccc(-c2csc3nc(-c4ccccn4)nc(NCc4ccccn4)c23)cc1 [Example 1.2, (5-Phenyl-2-pyridin-2-yl-thieno[2,3-d]pyrimidin-4-yl)-pyridin-2-ylmethyl-amine] | > 20
Cn1ncc2c(NCc3ccncc3)nc(-c3ccccn3)nc21 [Example 2.17, 1-Methyl-6-(pyridin-2-yl)-N-(pyridin-4-ylmethyl)-1H-pyrazolo[3,4-d]pyrimidin-4-amine] | 1 to 20
